The target in one assay is T1, hDGAT-1 (HuTu 80) (Homo sapiens, UniProt O75907).
T1 construct: microsomal protein isolated from human duodenal adenocarcinoma (‘Hutu 80’); endogenous in cells; host or cells: HuTu 80 human duodenal adenocarcinoma cells (microsomes)
T1 sequence (O75907 1-488): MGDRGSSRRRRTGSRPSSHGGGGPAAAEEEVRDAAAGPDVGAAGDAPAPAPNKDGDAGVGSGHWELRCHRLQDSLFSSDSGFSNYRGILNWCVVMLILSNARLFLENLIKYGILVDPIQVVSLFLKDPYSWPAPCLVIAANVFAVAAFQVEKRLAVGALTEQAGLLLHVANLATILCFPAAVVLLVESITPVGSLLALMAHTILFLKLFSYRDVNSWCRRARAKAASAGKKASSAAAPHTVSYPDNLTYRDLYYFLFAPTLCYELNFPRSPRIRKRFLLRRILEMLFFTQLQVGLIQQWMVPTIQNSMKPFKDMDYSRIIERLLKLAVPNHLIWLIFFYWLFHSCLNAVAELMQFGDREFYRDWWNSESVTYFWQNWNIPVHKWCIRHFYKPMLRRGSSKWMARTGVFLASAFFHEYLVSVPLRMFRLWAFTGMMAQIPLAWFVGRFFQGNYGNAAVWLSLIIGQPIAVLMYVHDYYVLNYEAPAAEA
Description: DGAT enzyme inhibition test, microsomal protein from human duodenal adenocarcinoma (Hutu 80). It is filed as biochemical. Conditions: microsomal protein from HuTu 80. An excerpt: To investigate inhibitory effect of the compounds of Examples 1-33 against DGAT enzyme activity, DGAT enzyme inhibition and DGAT2 selectivity were investigated using zymogen including:
2) DGAT enzyme derived from human duodenal adenocarcinoma (‘Hutu 80’), and
To be specific, for the purpose of measuring human-derived DGAT enzyme inhibitory activity, using the zymogen, including enzymes derived from insect cell overexpressing human DGAT1 and DGAT2 (‘sf9’), microsomal protein isolated from human duodenal adenocarcinoma (‘Hutu 80’), and microsomal protein isolated from rat, and according to Coleman et al., (Methods Enzymol., 98-103, 1992), and substrate including 1,2-diacylglycerol(Sigma, D0138) and [^14C]palmitoyl-CoA (Amersham, CFA583), the amount of radiation of [^14C]triacylglycerol produced after enzymatic reaction was measured.
To be more specific, to the reaction solution containing 175 mM Tris-HCl (pH 8.0), 20 μl bovine serum albumin (10 mg/ml), 100 mM magnesium chloride, 30 μM [^14C]palmitoyl CoA (0.02 μCi, Amersham) and 200 μM 1,2-dioleoylglycerol, reagent dissolved in dimethylsulfoxide (10.0 μl) was added. After introducing 100 to 200 μg isolated microsomal protein and allowing the same to react at 25° C. for 10 min, the reaction was stopped by adding 1.5 ml stop solution (2-propanol:heptane:water=80:20:2, v:v:v). To isolate the product of the reaction (i.e., [^14C]triacylglycerol), 1 ml heptane and 0.5 ml distilled water were added and then decocted. After taking 1 ml supernatant, 2 ml alkaline ethanol solution (ethanol:0.5 N sodium hydroxide:water=50:10:40, v:v:v) were added and then decocted. After taking 0.65 ml supernatant from the decoction, the amount of radiation was measured with liquid scintillation counter (LSC). The DGAT inhibitory activity was calculated with Mathematical Expression 1 below:
T denotes cpm of experimental group in which the enzymatic reaction solution was treated with the sample,
C denotes cpm of control group in which the enzymatic reaction solution was not treated with the sample, and
B denotes cpm of control group treated with the sample without zymogen.

A further assay concerns HepG2 cells. Description: DGAT inhibitory effect in HepG2 cells (triglyceride production from [14C]glycerol). It is filed as cell-based. Conditions: Homo sapiens; for activity at 10 µM: HepG2, 6 h, DMSO control = 100, read-out: Triglyceride production rate (%)/HepG2 cells at 10 μM. In outline:
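HepG2 cells, switched to FBS-free DMEM, were treated with compounds at 10 μM and given 0.2 mCi [14C]glycerol for 6 hr. Lipids were hexane:isopropanol-extracted, triglyceride separated by TLC and quantified by radio-imaging, normalised to cell protein. Production expressed relative to DMSO control set at 100.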

For the compound `CC(C)N(NC(=O)c1ccccc1)C(=O)/C=C/c1cn(C(=O)C(C)(C)C)c2ccccc12` [Example 31, (E)-N′-isopropyl-N′-(3-(1-pivaloyl-1H-indol-3-yl)acryloyl)benzohydrazide], the IC50 at hDGAT-1 (HuTu 80) was 5100 nM. The activity at 10 µM in the assay on HepG2 cells was 93.3%.
Taken in the same sequence, the figures for `CC(C)N(NC(=O)c1ccccc1)C(=O)/C=C/c1cn(C(=O)c2ccccc2)c2ccccc12` [Example 32, (E)-N′-(3-(1-benzoyl-1H-indol-3-yl)acryloyl)-N′-isopropylbenzohydrazide] were 970 nM and 91.4%.
In the case of `CC(C)N(NC(=O)c1ccccc1)C(=O)/C=C/c1cn(C(=O)CC(C)(C)C)c2ccccc12` [Example 33, (E)-N′-(3-(1-(3,3-dimethylbutanoyl)-1H-indol-3-yl)acryloyl)-N′-isopropylbenzohydrazide], inhibition at hDGAT-1 (HuTu 80) was half-maximal at 2100 nM (IC50). Also, the activity at 10 µM in the assay with HepG2 cells turned out to be 78.2%. In addition, the inhibition at 10 µM with HepG2 cells (HepG2, 10 μM, read-out: biosynthesis inhibition rate of triglyceride) was in the range of 20 to 30%.

(Values after patent US8906952B2, “Indole derivative or pharmaceutically acceptable salt thereof, preparation method thereof, and pharmaceutical composition for preventing or treating metabolic diseases containing same as active ingredient” (Korea Research Institute of Bioscience and Biotechnology, priority 2011, dated 2014).)
